Article PMC10392749, “PIP5K1C phosphoinositide kinase deficiency distinguishes PIKFYVE-dependent cancer cells from non-malignant cells” (Autophagy, 2023)

Key:
CHUK/IKKA = target: T1, CHUK/IKKA (Homo sapiens, UniProt O15111); assay: KiNativ ATP-probe chemoproteomics in A375 cells treated with WX8; assay type: cell-based; settings: A-375
T1 sequence (O15111 1-745): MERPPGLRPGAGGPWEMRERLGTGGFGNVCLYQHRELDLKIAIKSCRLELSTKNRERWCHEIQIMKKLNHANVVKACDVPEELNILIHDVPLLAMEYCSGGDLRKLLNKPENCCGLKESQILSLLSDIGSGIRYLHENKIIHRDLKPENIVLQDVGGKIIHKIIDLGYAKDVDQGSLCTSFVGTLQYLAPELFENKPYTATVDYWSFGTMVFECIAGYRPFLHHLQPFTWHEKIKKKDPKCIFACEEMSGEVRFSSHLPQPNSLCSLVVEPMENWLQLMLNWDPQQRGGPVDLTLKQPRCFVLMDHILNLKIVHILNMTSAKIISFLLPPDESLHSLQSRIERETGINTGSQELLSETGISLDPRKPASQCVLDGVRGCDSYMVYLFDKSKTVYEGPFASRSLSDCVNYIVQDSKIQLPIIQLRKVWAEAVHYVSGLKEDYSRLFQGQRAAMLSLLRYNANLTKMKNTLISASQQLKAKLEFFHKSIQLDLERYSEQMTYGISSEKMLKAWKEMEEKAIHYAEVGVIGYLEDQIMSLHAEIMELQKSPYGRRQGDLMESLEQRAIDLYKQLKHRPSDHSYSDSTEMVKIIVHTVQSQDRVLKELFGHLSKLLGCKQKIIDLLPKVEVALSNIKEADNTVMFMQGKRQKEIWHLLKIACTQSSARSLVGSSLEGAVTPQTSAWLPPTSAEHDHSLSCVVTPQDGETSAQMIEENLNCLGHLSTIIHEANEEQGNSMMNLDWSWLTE

PIKFYVE = PIKFYVE (Homo sapiens, UniProt Q9Y2I7); assay: KiNativ ATP-probe chemoproteomics in A375 cells treated with WX8; in vitro kinase binding assay (Fig. 2F); assay type: cell-based; settings: A-375
PIKFYVE, sequence (Q9Y2I7 2-2098): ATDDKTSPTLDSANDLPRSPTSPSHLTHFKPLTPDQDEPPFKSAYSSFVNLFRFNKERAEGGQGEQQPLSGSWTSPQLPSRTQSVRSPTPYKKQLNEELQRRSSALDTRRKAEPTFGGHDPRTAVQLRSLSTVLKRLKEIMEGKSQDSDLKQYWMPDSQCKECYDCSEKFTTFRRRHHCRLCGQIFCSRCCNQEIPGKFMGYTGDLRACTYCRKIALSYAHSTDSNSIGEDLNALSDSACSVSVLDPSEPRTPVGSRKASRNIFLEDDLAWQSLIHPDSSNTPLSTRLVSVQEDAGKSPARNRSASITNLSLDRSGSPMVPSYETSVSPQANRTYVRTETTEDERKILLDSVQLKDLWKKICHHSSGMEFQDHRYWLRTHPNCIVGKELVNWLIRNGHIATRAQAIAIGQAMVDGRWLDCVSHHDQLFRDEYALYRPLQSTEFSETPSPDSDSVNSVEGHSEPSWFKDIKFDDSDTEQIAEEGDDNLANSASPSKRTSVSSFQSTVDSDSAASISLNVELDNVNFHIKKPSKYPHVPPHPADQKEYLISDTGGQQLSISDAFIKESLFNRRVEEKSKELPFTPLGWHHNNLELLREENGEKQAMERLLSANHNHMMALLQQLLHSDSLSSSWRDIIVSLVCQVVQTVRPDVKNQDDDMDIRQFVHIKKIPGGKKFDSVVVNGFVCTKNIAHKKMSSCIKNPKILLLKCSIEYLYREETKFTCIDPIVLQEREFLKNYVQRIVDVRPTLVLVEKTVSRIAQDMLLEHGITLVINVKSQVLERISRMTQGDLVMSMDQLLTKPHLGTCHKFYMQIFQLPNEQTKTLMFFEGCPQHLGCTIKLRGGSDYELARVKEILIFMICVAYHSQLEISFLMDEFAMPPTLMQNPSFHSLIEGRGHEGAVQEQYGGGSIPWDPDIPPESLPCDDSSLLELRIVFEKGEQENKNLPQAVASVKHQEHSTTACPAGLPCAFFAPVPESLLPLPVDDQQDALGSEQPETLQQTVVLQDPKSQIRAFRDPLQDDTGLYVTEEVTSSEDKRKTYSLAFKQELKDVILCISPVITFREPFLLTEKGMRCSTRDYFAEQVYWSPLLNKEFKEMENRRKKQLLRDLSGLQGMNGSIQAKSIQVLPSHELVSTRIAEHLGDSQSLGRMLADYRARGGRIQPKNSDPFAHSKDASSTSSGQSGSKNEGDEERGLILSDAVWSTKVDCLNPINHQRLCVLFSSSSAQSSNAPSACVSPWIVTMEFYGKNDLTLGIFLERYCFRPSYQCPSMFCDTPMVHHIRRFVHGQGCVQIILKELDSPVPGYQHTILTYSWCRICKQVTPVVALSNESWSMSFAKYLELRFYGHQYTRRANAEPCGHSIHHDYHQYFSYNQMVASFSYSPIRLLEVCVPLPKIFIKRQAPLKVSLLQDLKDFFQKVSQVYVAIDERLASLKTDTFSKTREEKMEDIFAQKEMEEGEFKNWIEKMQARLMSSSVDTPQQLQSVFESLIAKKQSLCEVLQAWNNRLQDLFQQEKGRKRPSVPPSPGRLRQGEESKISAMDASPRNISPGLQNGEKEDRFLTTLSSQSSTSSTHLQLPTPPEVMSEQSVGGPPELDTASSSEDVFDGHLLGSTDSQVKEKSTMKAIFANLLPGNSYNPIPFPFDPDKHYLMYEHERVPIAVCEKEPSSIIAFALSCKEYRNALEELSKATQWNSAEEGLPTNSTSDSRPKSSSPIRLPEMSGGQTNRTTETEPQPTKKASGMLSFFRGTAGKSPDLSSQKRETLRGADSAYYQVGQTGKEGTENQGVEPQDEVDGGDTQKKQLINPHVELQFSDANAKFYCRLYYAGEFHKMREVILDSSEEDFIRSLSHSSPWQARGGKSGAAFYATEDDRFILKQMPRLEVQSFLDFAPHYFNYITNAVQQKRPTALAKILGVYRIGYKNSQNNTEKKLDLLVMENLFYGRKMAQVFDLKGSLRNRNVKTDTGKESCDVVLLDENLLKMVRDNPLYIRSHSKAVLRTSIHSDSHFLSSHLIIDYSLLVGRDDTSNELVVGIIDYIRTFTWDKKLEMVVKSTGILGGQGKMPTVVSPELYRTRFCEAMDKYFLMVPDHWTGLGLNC

PIP4K2C = target: T2, PIP4K2C (Homo sapiens, UniProt Q8TBX8); assay: as above; assay type: biochemical
T2 sequence (Q8TBX8 2-421): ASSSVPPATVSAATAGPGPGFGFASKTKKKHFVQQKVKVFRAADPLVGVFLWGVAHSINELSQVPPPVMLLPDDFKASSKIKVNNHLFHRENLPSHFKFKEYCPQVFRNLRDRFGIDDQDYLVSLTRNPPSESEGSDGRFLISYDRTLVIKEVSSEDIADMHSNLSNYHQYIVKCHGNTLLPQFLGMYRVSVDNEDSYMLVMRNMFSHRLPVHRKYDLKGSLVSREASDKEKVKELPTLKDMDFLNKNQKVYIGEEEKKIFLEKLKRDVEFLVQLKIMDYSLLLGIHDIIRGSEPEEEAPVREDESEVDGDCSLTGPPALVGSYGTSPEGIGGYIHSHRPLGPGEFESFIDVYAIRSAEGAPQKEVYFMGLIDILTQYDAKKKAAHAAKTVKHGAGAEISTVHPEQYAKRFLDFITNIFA

inhibition at 1 µM (CHUK/IKKA): 39%
inhibition at 1 µM (PIKFYVE): 97%
IC50 (PIP4K2C): ~1000 nM
SMILES: C(=NNc1nc(Nc2ccccc2)nc(N2CCOCC2)n1)c1c[nH]c2ccccc12 [WX8, 1H-indole-3-carbaldehyde (4-anilino-6-[4-morpholinyl]-1,3,5-triazin-2-yl)hydrazone]
